Values after ≈ are worked out from the molar mass of the structure shown.
Columns and labels:
[1] = interconversion of the two diastereomers; format: physicochemical; settings: normal temperatures
[2] = tested on: Aspergillus fumigatus (MY4839); assay: broth microdilution assay (MIC/MEC); format: cell-based; settings: 24 hours
Method: (§1) In the microbroth dilution assay, microorganisms were selected by streaking a yeast culture on Sabouraud dextrose agar (SDA) and incubating for 24-48 hours at 35°-37° C. Three to five characteristic colonies were selected and transferred to a fresh plate and incubated under similar conditions. From the regrowth, 3 to 5 colonies were selected and suspended in 10 milliliters of YM broth (Difco) and incubated for 4 hours at 35°-37° C. shaking at 225 rpm. The 4 hour broth cultures were adjusted optically to 86% transmission resulting in a concentration of 1-5×10^6 cfu/ml which was further diluted 1:100 in YNBD (yeast nitrogen base with 1% dextrose) to obtain a concentration of 1-5×10^4 cfu/ml for use as inocula.
(§2) The test compound was dissolved at […] in 10% DMSO and diluted 2× into the first well to achieve a concentration of 256 μg/ml at 5% DMSO in the first well. Compounds are subsequently serially diluted 2× and cell suspension is added to each well resulting in an additional 2× dilution of compound. 75 μl of said solution is delivered to each well in column 1 of a 96-well, U-bottomed plate. The compounds in column 1 were then serially diluted two-fold to yield concentrations from 128 μg/ml to 0.03 μg/ml.
(§3) The plates containing the diluted compounds were then inoculated with 75 μl/well of the appropriate microorganism and incubated for 48 hours at 35°-37° C. with MIC (minimum inhibitory concentration) determinations carried out after 24 hours of incubation (except Cryptococcus strains which are read at 48 hours). Growth and sterility controls for each organism and sterility checks for the compounds also were carried out.
(§4) No MFC values are indicated for Aspergillus fumigatus since colony counts are unreliable with filamentous species. Instead, a Minimum Effective Concentration (MEC) is reported. The MEC is defined as the lowest concentration of drug which effects a severe morphological change in the cells. The MEC is scored macroscopically by direct observation of the plate wells after 24 hours and reflects microscopic alterations in cell morphology (Kurtz et al, AAC 1994 38:1480-1489).

[3] = tested on: Aspergillus fumigatus (MY5668); assay: broth microdilution assay (MIC/MEC); format: cell-based; settings: 24 hours
Method: as §1, §2, §3, §4

[4] = tested on: Aspergillus flavus, Fusarium oxysporum, Ustilago zeae and the like; assay: agar plate inhibition zone test against filamentous fungi; format: cell-based; settings: agar plates, methanol solutions, 28° C. or 37° C., 24 hours
Method: The compound is also useful for inhibiting the growth of filamentous fungi. Such use may be illustrated in the following tests with Aspergillus flavus, Fusarium oxysporum, Ustilago zeae and the like. Inocula for filamentous fungi are prepared by scraping the surface of stock plates maintained on potato dextrose agar with a moistened sterile dacron swab. The spores and mycelia are then suspended in 10 milliliters of sterile potato dextrose broth and adjusted to 70 percent transmission at 660 nm. The samples to be tested for production of antifungal agent are applied directly to the agar plates as methanol solutions. When the sample to be tested is crude broth, it may be centrifuged prior to application. The assay plates are then incubated at either 28° C. or 37° C. for 24 hours. Following incubation, the inhibition zones are measured. Effects on growth are also noted as to appearance.

panel of fungi = assay: broth microdilution assay, comparison with amphotericin B; format: cell-based; settings: MIC and MFC
Method: as §1, with “inocula. […]” for “inocula.”
as §3, with “Growth and sterility controls for each organism and sterility checks for the compounds also were carried out.” left out
After recording MICs at 24 hours, the microtiter plates were shaken gently to resuspend the cells. […] For Cryptococcus neoformans, SDA plates were inoculated at 48 hours after recording MICs and incubated 48 hours before reading the MFC. […]

[5] = tested on: Candida albicans (CLY539); assay: broth microdilution assay (MIC/MFC); format: cell-based; settings: 24 hours, 35°-37° C.
Method: as §1, §2, §3
(§5) After recording MICs at 24 hours, the microtiter plates were shaken gently to resuspend the cells. A 1.5 μl sample was transferred from each well of the 96-well plate to a single reservoir inoculum plate containing SDA. The inoculated SDA and corresponding microtiter plates were incubated for 24 hours at 35°-37° C. For Cryptococcus neoformans, SDA plates were inoculated at 48 hours after recording MICs and incubated 48 hours before reading the MFC. MFC is the lowest concentration of compound at which either no growth or growth of <4 colonies occur.

[6] = tested on: Cryptococcus neoformans (MY2061); assay: broth microdilution assay (MIC/MFC); format: cell-based
Method: as §1, §2, §3, §5

[7] = tested on: Candida guillermondii (MY1019); assay: broth microdilution assay (MIC/MFC); format: cell-based; settings: 24 hours, 35°-37° C.
Method: as §1, §2, §3, §5

[8] = tested on: Candida tropicalis (MY1124); assay: broth microdilution assay (MIC/MFC); format: cell-based; settings: 24 hours, 35°-37° C.
Method: as §1, §2, §3, §5

[9] = tested on: Candida albicans (MY1055); assay: broth microdilution assay (MIC/MFC); format: cell-based; settings: 24 hours, 35°-37° C.
Method: as §1, §2, §3, §5

[10] = tested on: Candida glabrata (MY1381); assay: broth microdilution assay (MIC/MFC); format: cell-based; settings: Nakaseomyces glabratus, 24 hours, 35°-37° C.
Method: as §1, §2, §3, §5

[11] = tested on: Saccharomyces cerevisiae (MY2140); assay: broth microdilution assay (MIC/MFC); format: cell-based; settings: 24 hours, 35°-37° C.
Method: as §1, §2, §3, §5

[12] = tested on: Candida pseudotropicalis (MY2099); assay: broth microdilution assay (MIC/MFC); format: cell-based; settings: Kluyveromyces marxianus, 24 hours, 35°-37° C.
Method: as §1, §2, §3, §5

[13] = tested on: Candida tropicalis (MY1012); assay: broth microdilution assay (MIC/MFC); format: cell-based; settings: 24 hours, 35°-37° C.
Method: as §1, §2, §3, §5

[14] = tested on: Candida parapsilosis (MY1010); assay: broth microdilution assay (MIC/MFC); format: cell-based; settings: Lodderomyces parapsilosis, 24 hours, 35°-37° C.
Method: as §1, §2, §3, §5

[15] = tested on: Cryptococcus neoformans (MY2062); assay: broth microdilution assay (MIC/MFC); format: cell-based
Method: as §1, §2, §3, §5

Candida krusei = assay: broth microdilution assay (MIC/MFC); format: cell-based; settings: Pichia kudriavzevii, 24 hours, 35°-37° C.
Method: as §1, §2, §3, §5

Candida albicans (CA2) = assay: broth microdilution assay (MIC/MFC); format: cell-based; settings: 24 hours, 35°-37° C.
Method: as §1, §2, §3, §5

[16] = 35°-37° C., read-out: MIC (minimum inhibitory concentration)
[17] = lowest concentration effecting severe morphological change, read-out: MEC (Minimum Effective Concentration)
[18] = read-out: MIC (minimum inhibitory concentration)
[19] = SDA, no growth or <4 colonies, read-out: MFC (minimum fungicidal concentration)
[20] = SDA inoculated at 48 hours, incubated 48 hours, no growth or <4 colonies, read-out: MFC (minimum fungicidal concentration)
[21] = read at 48 hours, 35°-37° C., read-out: MIC (minimum inhibitory concentration)

For `CC(=O)OC1CC23C4=CCC5(C)C(C(=O)O)C(C)(C(C)C(C)C)CCC5(C)C4CCC2C(C)(COC3O)C1OC1OC(CO)C(O)C(O)C1O` (stereo not drawn) [Compound I], the “reequilibration of separated diastereomers” value [1] was “reequilibrate at normal temperatures”, the MIC [2, 16] was 64 µg/mL (≈ 90.3 µM) and the minimal effective concentration [2, 17] was 0.031 µg/mL. For the same compound, the MIC [3, 16] was 32 µg/mL (≈ 45.1 µM), the minimal effective concentration [3, 17] was 0.031 µg/mL and the “inhibition of growth of filamentous fungi” value [4] was “effectively inhibit growth of the fungal organisms”. For the same compound, the “effectiveness against a panel of fungi, compared with amphotericin B” value (panel of fungi) was “at concentrations comparable to an established antifungal agent, amphotericin B”, the MIC [5, 18] was 0.5 µg/mL (≈ 0.705 µM) and the MFC [5, 19] was 0.5 µg/mL (≈ 0.705 µM). The MFC [6, 20] was 32 µg/mL (≈ 45.1 µM), the MIC [6, 21] was 32 µg/mL (≈ 45.1 µM) and the MIC [7, 18] was 1 µg/mL (≈ 1.41 µM). The MFC [7, 19] was 2 µg/mL (≈ 2.82 µM), the MIC [8, 18] was 16 µg/mL (≈ 22.6 µM) and the MFC [8, 19] was 16 µg/mL (≈ 22.6 µM). The MIC [9, 18] was 0.5 µg/mL (≈ 0.705 µM), the MFC [9, 19] was 0.25 µg/mL (≈ 0.353 µM) and the MIC [10, 18] was 1 µg/mL (≈ 1.41 µM). The MFC [10, 19] was 0.5 µg/mL (≈ 0.705 µM), the MIC [11, 18] was 2 µg/mL (≈ 2.82 µM) and the MFC [11, 19] was 2 µg/mL (≈ 2.82 µM). The MIC [12, 18] was 0.5 µg/mL (≈ 0.705 µM), the MFC [12, 19] was 1 µg/mL (≈ 1.41 µM) and the MIC [13, 18] was 1 µg/mL (≈ 1.41 µM). The MFC [13, 19] was 1 µg/mL (≈ 1.41 µM), the MIC [14, 18] was 0.25 µg/mL (≈ 0.353 µM) and the MFC [14, 19] was 0.25 µg/mL (≈ 0.353 µM). The MFC [15, 20] was 128 µg/mL (≈ 181 µM), the MIC [15, 21] was 32 µg/mL (≈ 45.1 µM) and the MIC (Candida krusei; [18]) was 4 µg/mL (≈ 5.64 µM). For the same compound, the MFC (Candida krusei; [19]) was 1 µg/mL (≈ 1.41 µM), the MIC (Candida albicans (CA2); [18]) was over 128 µg/mL and the MFC (Candida albicans (CA2); [19]) was over 128 µg/mL.

From patent US5756472A, “Antifungal agent obtained from hormonema” (Merck & Co., Inc., priority 1997, dated 1998)
